Test results as given in US20250034127A1, “AUTOPHAGY INDUCING COMPOUNDS AND USES THEREOF, IN PARTICULAR FOR DISEASES OF THE CNS” (Samsara Therapeutics Inc., priority 2021, published 2025).

Each compound was assayed on Human osteosarcoma U2OS cells (assay: Assay to measure lysosome and autolysosome (acidic vesicle) formation in U2OS cells). Conditions: Homo sapiens, concentration of 0.8 μM, read-out: Activity (percentage increase in acidic vesicle formation over the DMSO-treated control).
Type: cell-based
Method: Lysosomes play a fundamental role in the autophagic pathway by fusing with autophagosomes and creating ‘autolysosomes’ in order to digest their contents. Stimulation of lysosome and autolysosome formation by a compound is indicative of a stimulation of autophagy. The ability of compounds to stimulate lysosome and autolysosome formation, and thus autophagy, in live cells was assessed via fluorescent microscopy using various fluorescent stains for labelling and tracking acidic organelles (including lysosomes and autolysosomes) such as: LysoView™ 650 (70059 and 70059-T, Biotium), Lyso View™633 (70058 and 70058-T, Biotium) and LysoTracker™ Deep Red (L12492, ThermoFisher Scientific). The cellular phenotype was quantitatively assessed for the induction of acidic vesicle formation and compared to a non-treated control, thus providing a measure of the ability of the compound under investigation to stimulate autophagy.
Representative procedure using LysoView™ 633 dye or LysoTracker™ Deep Red dye: Human osteosarcoma U2OS cells (40,000 cells/well) were seeded in a 24 well glass bottom plate (Sensoplate, Greiner Bio-One) and were incubated overnight in a humidified atmosphere at 37° C. and 5% CO2. Cells were grown in DMEM (Gibco) supplemented with 10% Fetal Bovine Serum (FBS) and 100 units/ml penicillin and 100 μg/ml streptomycin (Invitrogen). After the attachment period, cells were treated with different compounds of interest (at various concentrations in DMSO) or DMSO (non-treated control) in cell culture medium and were incubated for 24 hours. Compound-containing medium was removed and cells were incubated with pre-warmed cell culture medium containing 1× Lyso View™ 633 (70058 and 70058-T, Biotium) or 50 nM LysoTracker™ Deep Red (L12492, ThermoFisher Scientific) for 45 minutes at 37° C. Finally, cell nuclei were stained for 10 minutes using Hoechst 33342 (1 μg/mL) and then the medium was replaced with fresh medium. The 24 well plate was then fitted into a heated stage on the microscope and cells maintained at 37° C. Images were captured using appropriate filter set for Cy5 and DAPI detection with the EVOS M7000 Microscope (ThermoFisher Scientific). The cellular phenotype was visually assessed for the induction of acidic vesicle formation relative to the non-treated control; multiple images were acquired and analysed using ImageJ or Cell Profiler.
CC1(C)CN(C(=O)c2csc(-c3cnn(-c4ccccc4)c3)n2)CCN1 [Compound 235, 3,3-dimethyl-1-[2-(1-phenyl-1H-pyrazol-4-yl)-1,3-thiazole-4-carbonyl]piperazine] was tested, and the activation at 0.8 µM was 30 to 50%.
Work on CCN1CCC(NC(=O)c2csc(-c3cnn(-c4cnccn4)c3)n2)CC1 [Compound 234, N-(1-ethylpiperidin-4-yl)-2-[1-(pyrazin-2-yl)-1H-pyrazol-4-yl]-1,3-thiazole-4-carboxamide] yielded an activation at 0.8 µM of 30 to 50%.
In the case of CCN1CCC(N(C)C(=O)c2csc(-c3cnn(-c4ccccc4C(F)(F)F)c3)n2)CC1 [Compound 217, N-(1-ethylpiperidin-4-yl)-N-methyl-2-{1-[2-(trifluoromethyl)phenyl]-1H-pyrazol-4-yl}-1,3-thiazole-4-carboxamide], the activation at 0.8 µM is reported as 10 to 30%.
Work on O=C(NCCN1CCCCC1)c1csc(-c2cnn(-c3ccccc3)c2)n1 [Compound 202, 2-(1-phenyl-1H-pyrazol-4-yl)-N-[2-(piperidin-1-yl)ethyl]-1,3-thiazole-4-carboxamide] yielded an activation at 0.8 µM of 30 to 50%.
CCN1CCC(N(C)C(=O)c2cc(-c3nnc(-c4ccccc4)s3)cs2)CC1 [Compound 258, N-(1-ethylpiperidin-4-yl)-N-methyl-4-(5-phenyl-1,3,4-thiadiazol-2-yl)thiophene-2-carboxamide] gave an activation at 0.8 µM of 10 to 30%.
Compound C[C@H]1CN(C(=O)c2csc(-c3cnn(-c4ncccn4)c3)n2)CCN1 [Compound 249, 2-(4-{4-[(3S)-3-methylpiperazine-1-carbonyl]-1,3-thiazol-2-yl}-1H-pyrazol-1-yl)pyrimidine] has an activation at 0.8 µM of 10 to 30%.
Work on C[C@H]1CN(C(=O)c2cc(-c3cnn(-c4ccccc4)c3)c[nH]2)CCN1 [Compound 255, (3S)-3-methyl-1-[4-(1-phenyl-1H-pyrazol-4-yl)-1H-pyrrole-2-carbonyl]piperazine] yielded an activation at 0.8 µM of 50 to 100%.
CCN1CCN(C(=O)c2csc(-c3cnn(-c4ccccc4)c3)n2)CC1 [Compound 236, 1-ethyl-4-[2-(1-phenyl-1H-pyrazol-4-yl)-1,3-thiazole-4-carbonyl]piperazine] gave an activation at 0.8 µM of 10 to 30%.
For CN1CCC[C@H](NC(=O)c2csc(-c3cnn(-c4ccccc4)c3)n2)C1 [Compound 208, N-[(3S)-1-methylpiperidin-3-yl]-2-(1-phenyl-1H-pyrazol-4-yl)-1,3-thiazole-4-carboxamide], the activation at 0.8 µM was 10 to 30%.
Work on C[C@H]1CN(C(=O)c2csc(-c3cnn(-c4cccnn4)c3)n2)CCN1 [Compound 229, 3-(4-{4-[(3S)-3-methylpiperazine-1-carbonyl]-1,3-thiazol-2-yl}-1H-pyrazol-1-yl)pyridazine] yielded an activation at 0.8 µM of 30 to 50%.
Compound CN(CCN(C)C1CCCCC1)C(=O)c1csc(-c2cnn(-c3ccccc3)c2)n1 [Compound 190, N-{2-[cyclohexyl(methyl)amino]ethyl}-N-methyl-2-(1-phenyl-1H-pyrazol-4-yl)-1,3-thiazole-4-carboxamide] has an activation at 0.8 µM of 10 to 30%.
With CCN1CCC(NC(=O)c2csc(-c3cnn(-c4cccnn4)c3)n2)CC1 [Compound 231, N-(1-ethylpiperidin-4-yl)-2-[1-(pyridazin-3-yl)-1H-pyrazol-4-yl]-1,3-thiazole-4-carboxamide] the activation at 0.8 µM was 10 to 30%.
For CCN1CCC(NC(=O)c2ccc(-c3cnn(-c4ccccc4)c3)[nH]2)CC1 [Compound 214, N-(1-ethylpiperidin-4-yl)-5-(1-phenyl-1H-pyrazol-4-yl)-1H-pyrrole-2-carboxamide], the activation at 0.8 µM was 10 to 30%.
CCN1CCC(N(C)C(=O)c2csc(-c3cnn(-c4cnccn4)c3)n2)CC1 [Compound 233, N-(1-ethylpiperidin-4-yl)-N-methyl-2-[1-(pyrazin-2-yl)-1H-pyrazol-4-yl]-1,3-thiazole-4-carboxamide] gave an activation at 0.8 µM of 50 to 100%.
CCN1CCC(N(C)C(=O)c2csc(-c3cnn(-c4ncccn4)c3)n2)CC1 [Compound 250, N-(1-ethylpiperidin-4-yl)-N-methyl-2-[1-(pyrimidin-2-yl)-1H-pyrazol-4-yl]-1,3-thiazole-4-carboxamide] gave an activation at 0.8 µM of 10 to 30%.
C[C@H]1CN(C(=O)c2csc(-c3cnn(-c4cnccn4)c3)n2)CCN1 [Compound 232, 2-(4-{4-[(3S)-3-methylpiperazine-1-carbonyl]-1,3-thiazol-2-yl}-1H-pyrazol-1-yl)pyrazine] showed an activation at 0.8 µM of 50 to 100%.
In the case of CCN1C[C@H]2C[C@@H]1CC2NC(=O)c1csc(-c2cnn(-c3ccccc3)c2)n1 (stereo partly drawn) [Compound 244, N-[(1R,4R)-2-ethyl-2-azabicyclo[2.2.1]heptan-5-yl]-2-(1-phenyl-1H-pyrazol-4-yl)-1,3-thiazole-4-carboxamide], the activation at 0.8 µM is reported as 10 to 30%.
NS(=O)(=O)N1CCN(C(=O)c2ccc(-c3cnn(-c4ccccc4C(F)(F)F)c3)[nH]2)CC1 [Compound 216, 4-(5-{1-[2-(trifluoromethyl)phenyl]-1H-pyrazol-4-yl}-1H-pyrrole-2-carbonyl)piperazine-1-sulfonamide] gave an activation at 0.8 µM of 10 to 30%.
For CCN1CCC(NC(=O)c2csc(-c3cnn(-c4cccnc4)c3)n2)CC1 [Compound 225, N-(1-ethylpiperidin-4-yl)-2-[1-(pyridin-3-yl)-1H-pyrazol-4-yl]-1,3-thiazole-4-carboxamide], the activation at 0.8 µM was 10 to 30%.
In the case of CCN1CCC(NC(=O)c2csc(-c3cnn(-c4ccc(F)cc4)c3)n2)CC1 [Compound 213, N-(1-ethylpiperidin-4-yl)-2-[1-(4-fluorophenyl)-1H-pyrazol-4-yl]-1,3-thiazole-4-carboxamide], the activation at 0.8 µM is reported as 10 to 30%.
In the case of CCN1CCC(NC(=O)c2csc(-c3cnn(-c4ccncc4)c3)n2)CC1 [Compound 228, N-(1-ethylpiperidin-4-yl)-2-[1-(pyridin-4-yl)-1H-pyrazol-4-yl]-1,3-thiazole-4-carboxamide], the activation at 0.8 µM is reported as 10 to 30%.
For CCN1CCC(N(CC)C(=O)c2csc(-c3cnn(-c4ccccc4)c3)n2)CC1 [Compound 219, N-ethyl-N-(1-ethylpiperidin-4-yl)-2-(1-phenyl-1H-pyrazol-4-yl)-1,3-thiazole-4-carboxamide], the activation at 0.8 µM was over 100%.
CCN1CCC(N(C)C(=O)c2csc(-c3cnn(-c4cccnc4)c3)n2)CC1 [Compound 224, N-(1-ethylpiperidin-4-yl)-N-methyl-2-[1-(pyridin-3-yl)-1H-pyrazol-4-yl]-1,3-thiazole-4-carboxamide] gave an activation at 0.8 µM of 50 to 100%.
CN(C(=O)c1csc(-c2cnn(-c3ccccc3)c2)n1)C1CCN(C(C)(C)C)CC1 [Compound 239, N-(1-tert-butylpiperidin-4-yl)-N-methyl-2-(1-phenyl-1H-pyrazol-4-yl)-1,3-thiazole-4-carboxamide] was tested, and the activation at 0.8 µM was 10 to 30%.
CC(=O)N1CCN(C(=O)c2csc(-c3cnn(-c4ccccc4)c3)n2)CC1 [Compound 198, 1-{4-[2-(1-phenyl-1H-pyrazol-4-yl)-1,3-thiazole-4-carbonyl]piperazin-1-yl}ethan-1-one] showed an activation at 0.8 µM of 10 to 30%.
CCN1C[C@@H]2C[C@H]1CC2NC(=O)c1csc(-c2cnn(-c3ccccc3)c2)n1 (stereo partly drawn) [Compound 246, N-[(1S,4S)-2-ethyl-2-azabicyclo[2.2.1]heptan-5-yl]-2-(1-phenyl-1H-pyrazol-4-yl)-1,3-thiazole-4-carboxamide] was tested, and the activation at 0.8 µM was 10 to 30%.
CCN1C[C@@H]2C[C@H]1CC2N(C)C(=O)c1csc(-c2cnn(-c3ccccc3)c2)n1 (stereo partly drawn) [Compound 245, N-[(1S,4S)-2-ethyl-2-azabicyclo[2.2.1]heptan-5-yl]-N-methyl-2-(1-phenyl-1H-pyrazol-4-yl)-1,3-thiazole-4-carboxamide] gave an activation at 0.8 µM of 10 to 30%.
For O=C(NCCN1CCOCC1)c1csc(-c2cnn(-c3ccccc3)c2)n1 [Compound 204, N-[2-(morpholin-4-yl)ethyl]-2-(1-phenyl-1H-pyrazol-4-yl)-1,3-thiazole-4-carboxamide], the activation at 0.8 µM was 10 to 30%.

Same assay, conditions: concentration of 10 μM, 24 hours
With CCN1CCC(N(C)C(=O)c2cc(-c3nnc(-c4ccccc4)s3)cs2)CC1 [Compound 258, N-(1-ethylpiperidin-4-yl)-N-methyl-4-(5-phenyl-1,3,4-thiadiazol-2-yl)thiophene-2-carboxamide] the “acidic vesicle formation relative to a DMSO-treated control” value was “only a slight increase”.
C[C@H]1CC(N(C)C(=O)c2csc(-c3cnn(-c4ccccc4)c3)n2)CCN1 (stereo partly drawn) [Compound 241, N-methyl-N-[(2S)-2-methylpiperidin-4-yl]-2-(1-phenyl-1H-pyrazol-4-yl)-1,3-thiazole-4-carboxamide] was tested, and the “acidic vesicle formation relative to a DMSO-treated control” value was “only a slight increase”.
With CCN1CCC(N(C)C(=O)c2csc(-c3cnn(-c4ccncc4)c3)n2)CC1 [Compound 227, N-(1-ethylpiperidin-4-yl)-N-methyl-2-[1-(pyridin-4-yl)-1H-pyrazol-4-yl]-1,3-thiazole-4-carboxamide] the “acidic vesicle formation relative to a DMSO-treated control” value was “only a slight increase”.
With C[C@H]1CN(C(=O)c2csc(-c3cnn(-c4cnccn4)c3)n2)CCN1 [Compound 232, 2-(4-{4-[(3S)-3-methylpiperazine-1-carbonyl]-1,3-thiazol-2-yl}-1H-pyrazol-1-yl)pyrazine] the “acidic vesicle formation relative to a DMSO-treated control” value was “only a slight increase”.
With C[C@H]1CN(C(=O)c2csc(-c3cnn(-c4ccncc4)c3)n2)CCN1 [Compound 226, (3S)-3-methyl-1-{2-[1-(pyridin-4-yl)-1H-pyrazol-4-yl]-1,3-thiazole-4-carbonyl}piperazine] the “acidic vesicle formation relative to a DMSO-treated control” value was “only a slight increase”.
